Where two headings read alike, the source gives them in different places.
Experiments:
[1] = target: T1, GR (collagenase promoter) (Homo sapiens, UniProt P04150); assay: reporter gene test in HeLa cells, transrepression, collagenase promoter-luciferase; type: cell-based; settings: TPA-induced; for IC50: read-out: Transrepression (TR)(Collagenase Promoter) IC50
T1 construct: endogenous in cells; host or cells: HeLa cells stably transfected with promoter-luciferase reporters (MMTV, IL-6 or collagenase promoter)
T1 sequence (P04150 1-777): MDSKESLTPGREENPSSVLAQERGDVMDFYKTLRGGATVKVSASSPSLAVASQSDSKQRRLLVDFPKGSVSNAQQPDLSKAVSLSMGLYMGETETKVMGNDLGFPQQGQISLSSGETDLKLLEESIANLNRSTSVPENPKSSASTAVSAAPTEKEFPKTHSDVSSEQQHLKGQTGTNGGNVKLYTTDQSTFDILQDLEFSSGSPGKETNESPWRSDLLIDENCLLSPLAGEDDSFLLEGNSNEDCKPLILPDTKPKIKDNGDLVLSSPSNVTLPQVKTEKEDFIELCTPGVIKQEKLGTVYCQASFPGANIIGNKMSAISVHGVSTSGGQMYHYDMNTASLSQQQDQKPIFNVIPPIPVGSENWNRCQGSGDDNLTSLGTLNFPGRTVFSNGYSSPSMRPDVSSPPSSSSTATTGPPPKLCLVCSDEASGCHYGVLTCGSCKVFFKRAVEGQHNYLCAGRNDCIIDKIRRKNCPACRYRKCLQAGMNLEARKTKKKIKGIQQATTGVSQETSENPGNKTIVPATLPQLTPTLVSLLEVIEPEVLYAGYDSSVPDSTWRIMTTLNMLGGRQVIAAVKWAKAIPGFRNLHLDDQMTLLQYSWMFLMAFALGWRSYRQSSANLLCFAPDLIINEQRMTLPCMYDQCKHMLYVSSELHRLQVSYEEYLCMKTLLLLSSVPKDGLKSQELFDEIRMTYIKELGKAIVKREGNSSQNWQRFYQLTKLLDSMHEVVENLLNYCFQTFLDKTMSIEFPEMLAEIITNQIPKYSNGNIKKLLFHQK

[2] = system: tyrosinamino transferase (TAT); assay: induction of tyrosinamino transferase (TAT) in liver homogenates; type: in vivo; settings: mice, 8 hours after administration, vs untreated control
Source text: One of the most frequent undesirable effects of a glucocorticoid therapy is the so-called “steroid diabetes” [cf. Hatz, H. J., Glucocorticoide: Immunologische Grundlagen, Pharmakologie und Therapierichtlinien [Glucocorticoids: Immunological Bases, Pharmacology and Therapy Guidelines], Wissenschaftliche Verlagsgesellschaft mbH, Stuttgart, 1998]. The reason for this is the stimulation of the gluconeogenesis in the liver by induction of the enzymes that are responsible for this effect and by free amino acids, which develop from the degradation of proteins (catabolic action of glucocorticoids). A key enzyme of the catabolic metabolism in the liver is the tyrosinamino transferase (TAT). The activity of this enzyme can be determined photometrically from liver homogenates and represents a good yardstick of the undesirable metabolic actions of the glucocorticoids. To measure the TAT induction, the animals are sacrificed 8 hours after the test substances are administered, the livers are removed, and the TAT activity in the homogenate is measured.
As parameters for the side effects of the catabolic metabolism induced by steroids, the activity of the enzyme tyrosinamino transferase (TAT) was determined by photometry from liver homogenates. The activity represents a good yardstick for the undesirable catabolic actions of the glucocorticoids. To measure the TAT induction, the animals (mice and rats) are killed 8 hours after the test substance is administered, the liver is removed, and the TAT activity is measured in the homogenates.

GR (IL-6 promoter) = target: T2, GR (IL-6 promoter) (Homo sapiens, UniProt P04150); assay: reporter gene test in HeLa cells, transrepression, IL-6 promoter-luciferase; settings: for Emax: HeLa, read-out: Transrepression (TR)(IL-6-Promoter) Efficacy
T2 sequence (P04150 1-777): T1 sequence (P04150 1-777)
Experimental: (§1) The MMTV promoter (transactivation) and the IL-6 promoter (transrepression) in each case were upstream to the gene that codes for the luciferase. By means of the photometric determination of the enzyme activity of the luciferase, it was possible to measure the activation of the transcription (MMTV-promoter-construct) or the inhibition of the transcription (IL-6-promoter-construct) by the GR.
(§2) This dissociation of the mechanisms of action was determined with the aid of the reporter gene test in stable transfixed human HeLa cells. To determine the transactivation induced by the GR, the MMTV promoter, which is set before a luciferase gene, is used. Via the photometric determination of the luciferase activity, it was possible to determine the transactivation activities of the GR after binding the test compounds. The inhibition of the transcription of the luciferase gene, induced by tetradecanoyl-phorbol acetate (TPA) under the control of the IL-6 promoter or the collagenase promoter (transpression) by the GR after binding the test substances, was also determined by the measurement of luciferase activity in HeLa cells.

GR (MMTV promoter) = target: T3, GR (MMTV promoter) (Homo sapiens, UniProt P04150); assay: reporter gene test in HeLa cells, transactivation, MMTV promoter-luciferase; settings: for TA:TR EC50:IC50: MMTV promoter EC50 : IL-6 promoter IC50
T3 sequence (P04150 1-777): T1 sequence (P04150 1-777)
Experimental: as §1, §2

human GR = target: T4, human GR (Homo sapiens, UniProt P04150); assay: glucocorticoid receptor (GR) binding test, cytosol of Sf9 cells, [3H]-dexamethasone; settings: human GR from Sf9 cytosol
T4 construct: made in house; host or cells: Sf9 cells infected with recombinant baculovirus (cytosol preparation)
T4 sequence (P04150 1-777): T1 sequence (P04150 1-777)
Source text: The binding of substances to the glucocorticoid receptor (GR) is examined with the aid of a recombinantly produced receptor. Cytosol preparations of Sf9 cells, which had been infected with recombinant baculoviruses, which code for the GR, are used for the binding studies.

[3] = system: secretion of cytokine IL-8 in human monocyte cell line THP-1; assay: inhibition of LPS-triggered IL-8 secretion in THP-1 cells (ELISA); type: cell-based; design: Inhibition of IL-8 Secretion Efficacy: concentration or dose not given beside the values; settings: THP-1, LPS-triggered
Experimental: The concentration of the cytokines was determined in the supernatant with use of commercially available ELISA kits.
The potency of the inflammation inhibition is determined by the inhibition of the secretion of cytokine IL-8 in a cellular test. […] The concentration of the cytokine was determined in the supernatant by commercially available ELISA kits. In this connection, the compounds of formula I show a high to very high potency and action (>50%) in the inhibition (see Table 4). The potency of the racemates is considerably lower than that of the pure enantiomers.

[4] = system: croton oil-induced inflammation; assay: croton oil-induced ear inflammation, edema formation in mice; type: in vivo; settings: systemic, two hours before croton oil, ear weight
Experimental: The antiinflammatory actions of the compounds of general formula I were tested in the animal experiment by tests in the croton oil-induced inflammation in rats and mice (J. Exp. Med. (1995), 182, 99–108). In this connection, croton oil in ethanolic solution was administered topically to the animals' ears. The test substances were also administered topically or systemically simultaneously with or two hours before the croton oil. After 16–24 hours, the ear weight was measured as a yardstick of the inflammatory edema, the peroxidase activity was measured as a yardstick of the invasions of granuloctyes, and the elastase activity was measured as a yardstick of the invasion of neutrophilic granuloctyes.
The antiinflammatory action of the compounds of general formula I were tested in an animal experiment in croton oil-induced inflammation in mice and in rats (J. Exp. Med. (1995), 182, 99–108). In this connection, croton oil in ethanolic solution was administered topically to the animals' ears. The test substances were systemically administered for two hours before the croton oil. After 16–24 hours, the ear weight was measured as a yardstick for the inflammatory edema.

[5] = HeLa cells, TPA-induced, luciferase
[6] = read-out: Transrepression (TR)(IL-6-Promoter) IC50, HeLa cells, TPA-induced, luciferase

Compound | Induction Factor for TAT with 3 mg/kg [2] | Induction Factor for TAT with 30 mg/kg [2] | TA:TR EC50:IC50 (GR (MMTV promoter)) | IC50 (GR (IL-6 promoter)) [nM] | Emax (GR (IL-6 promoter)) [%] | Transrepression (TR)(Collagenase Promoter) Efficacy [1] [%] | Transrepression (TR)(IL-6-Promoter) Efficacy (GR (IL-6 promoter); [5]) [%] | IC50 (GR (IL-6 promoter); [6]) [nM] | Transactivating (TA)(MMTV-Promoter) Efficacy (GR (MMTV promoter); HeLa cells, luciferase) [%] | Edema Inhibition with 3 mg/kg [4] [%] | Edema Inhibition with 30 mg/kg [4] [%] | also measured
Cc1noc(=O)c2ccc(NC(=O)C(O)(CC(C)(C)c3cccc4ccoc34)C(F)(F)F)cc12 (single isomer, unassigned) [Example 23] | 1.1 | 1.0 | 6.2 | – | – | 78 | 78 | 1.6 | 76 | – | – | IC50 [1]: 4.9 nM; EC50 (GR (MMTV promoter); read-out: Transactivating (TA)(MMTV-Promoter) EC50, HeLa cells, luciferase): 10 nM
Cc1noc(=O)c2ccc(NC(=O)C(O)(CC3(c4cccc5c4OCO5)CC3)C(F)(F)F)cc12 (single isomer, unassigned; (+)) [Example 4] | – | – | – | – | – | – | 80 | 1.5 | – | – | – | IC50 [3]: 29 nM; Inhibition of IL-8 Secretion Efficacy [3]: 62%
Cc1noc(=O)c2ccc(NC(=O)C(O)(CC(C)(C)c3cc(Br)ccc3O)C(F)(F)F)cc12 (single isomer, unassigned; (+)) [Example 7, (+)-6-[4-(5-Bromo-2-hydroxyphenyl)-2-hydroxy-4-methyl-2-(trifluoromethyl)valeroylamino]-4-methyl-2,3-benzoxazin-1-one] | 1.2 | 2.4 | – | – | – | – | – | – | – | 22 | 75 | –
CCc1noc(=O)c2ccc(NC(=O)C(O)(CC(C)(C)c3cccc4ccoc34)C(F)(F)F)cc12 (single isomer, unassigned; (+)) [Example 8, (+)-4-Ethyl-6-[4-(7-benzofuranyl)-2-hydroxy-4-methyl-2-trifluoromethylvaleroylamino]-2,3-benzoxazin-1-one] | – | – | 17.8 | 2.8 | 67 | – | – | – | 25 | 33 | 52 | EC50 (GR (MMTV promoter)): 50 nM
C[C@@H]1C[C@H]2[C@@H]3CCC4=CC(=O)C=C[C@]4(C)[C@@]3(F)[C@@H](O)C[C@]2(C)[C@@]1(O)C(=O)CO [Dexamethasone, reference compound] | – | – | – | – | – | 100 | 100 | – | 100 | – | – | –
C[C@]12C=CC(=O)C=C1CC[C@@H]1[C@@H]2[C@@H](O)C[C@@]2(C)[C@H]1CC[C@]2(O)C(=O)CO [Prednisolone, reference compound] | 2.6 | 8.0 | – | – | 94 | 96 | – | – | – | 35 | 84 | IC50 ([3]; Homo sapiens): 18 nM; Inhibition of IL-8 Secretion Efficacy [3]: 92%
(+)-6-[3-(Benzo[1,3]dioxol-4-yl)-cyclobutyl-2-hydroxy-2-trifluoromethyl-propionyl-amino]-4-methyl-2,3-benzoxazin-1-one [Example 6] | – | – | – | – | – | 95 | 77 | 1.2 | – | – | – | IC50 [1]: 2.6 nM

Second part, led by results:

Induction Factor for TAT with 3 mg/kg [2] | Induction Factor for TAT with 30 mg/kg [2] | TA:TR EC50:IC50 (GR (MMTV promoter)) | IC50 (GR (IL-6 promoter)) [nM] | Emax (GR (IL-6 promoter)) [%] | Compound | Transrepression (TR)(Collagenase Promoter) Efficacy [1] [%] | Transrepression (TR)(IL-6-Promoter) Efficacy (GR (IL-6 promoter); [5]) [%] | IC50 (GR (IL-6 promoter); [6]) [nM] | Transactivating (TA)(MMTV-Promoter) Efficacy (GR (MMTV promoter); HeLa cells, luciferase) [%] | Edema Inhibition with 3 mg/kg [4] [%] | Edema Inhibition with 30 mg/kg [4] [%] | also measured
– | – | – | 2.2 | 76 | COc1c(F)cccc1C1(CC(O)(C(=O)Nc2ccc3c(=O)onc(C)c3c2)C(F)(F)F)CCC1 (single isomer, unassigned) [Example 32] | – | – | – | – | – | – | IC50 (human GR): 3 nM
– | – | 22.3 | 2.2 | 80 | Cc1noc(=O)c2ccc(NC(=O)C(O)(CC3(c4cccc(F)c4O)CCC3)C(F)(F)F)cc12 (single isomer, unassigned) [Example 33] | – | – | – | 76 | – | – | EC50 (GR (MMTV promoter)): 49 nM
